PubChem BioAssay AID588465 (NMMLSC, 2011)

target: Beta-adrenergic receptor kinase 1 (Homo sapiens) (UniProt P25098); assay: inhibition of GRK2-catalyzed rhodopsin phosphorylation – biochemical, set 1, orthogonal assay for GRK2 aptamer-displacement inhibitor project, late-stage follow-up (AID 588465); conditions: 32P incorporation, ROS, at 200 µM, stronger effect = lower value
Sequence (P25098 whole entry, looked up): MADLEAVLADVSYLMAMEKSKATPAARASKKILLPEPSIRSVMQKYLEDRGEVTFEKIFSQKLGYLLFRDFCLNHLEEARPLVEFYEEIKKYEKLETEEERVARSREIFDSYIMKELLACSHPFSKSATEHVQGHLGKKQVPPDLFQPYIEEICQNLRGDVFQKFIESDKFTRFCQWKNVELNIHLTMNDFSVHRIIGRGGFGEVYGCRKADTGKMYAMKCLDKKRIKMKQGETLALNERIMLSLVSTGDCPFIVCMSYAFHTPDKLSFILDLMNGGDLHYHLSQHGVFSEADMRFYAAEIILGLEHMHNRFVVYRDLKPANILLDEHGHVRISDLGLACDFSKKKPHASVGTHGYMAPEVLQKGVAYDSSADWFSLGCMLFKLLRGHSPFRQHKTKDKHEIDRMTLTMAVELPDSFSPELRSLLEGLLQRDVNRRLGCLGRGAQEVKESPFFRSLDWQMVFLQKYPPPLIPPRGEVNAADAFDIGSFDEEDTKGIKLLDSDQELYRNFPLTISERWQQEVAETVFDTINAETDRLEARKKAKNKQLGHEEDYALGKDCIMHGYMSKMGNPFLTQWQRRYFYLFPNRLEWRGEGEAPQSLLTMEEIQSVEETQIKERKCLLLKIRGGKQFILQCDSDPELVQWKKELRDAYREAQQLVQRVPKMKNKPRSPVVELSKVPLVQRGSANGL

Structure (SMILES) | percent response (negative = inhibition) [%]
CCOc1ccc(CCNC(=O)CCS(=O)(=O)c2ccc(Br)cc2)cc1OCC | -69.7
O=C(O)C1CC(=O)N(c2ccc3c(c2)OCCO3)C1 (stereo not given) | -77.7
CCc1ccccc1NC(=O)CCS(=O)(=O)c1ccc(Br)cc1 | -26
O=C(CCS(=O)(=O)c1ccc(Br)cc1)NCCc1ccc(Cl)cc1 | -35.6
Cc1cccc(N2CCN(C(=O)CCS(=O)(=O)c3ccc(Br)cc3)CC2C)c1 (stereo not given) | -24

Second part, the compound after the results:

percent response (negative = inhibition) [%] | Structure (SMILES)
-59.5 | COc1ccc(CNC(=O)CCS(=O)(=O)c2ccc(Br)cc2)cc1
-17.7 | Cc1cc(=O)[nH]c(SCC(=O)NCc2ccco2)n1
-37.5 | O=C(CCS(=O)(=O)c1ccc(Br)cc1)Nc1cc(F)ccc1F
-12.6 | Cc1ccccc1NC(=O)CCS(=O)(=O)c1ccc(Br)cc1
-42.4 | Cc1cc2ccccc2n1CCNC(=O)c1cccs1
